According to ChEMBL document CHEMBL1130498, “Synthesis of conformationally constrained analogues of BRL-32872. Determination of stereochemistry and related pharmacological properties” (Bioorg Med Chem Lett, 1997):
Values joined by “and” are separate entries in the source; they are usually repeats but may differ in a detail not shown here. Equal entries are not always repeated.

Assay: Hill coefficient was evaluated

| Compound | Hill coefficient |
| --- | --- |
| COc1ccc(CCN2C3CC[C@@H]2[C@H](N(C(=O)c2ccc([N+](=O)[O-])cc2)c2ccc(OC)c(OC)c2)C3)cc1OC | 1.37 and 0.93 |
| COc1ccc(CCN2C3CC[C@@H]2[C@@H](N(C(=O)c2ccc([N+](=O)[O-])cc2)c2ccc(OC)c(OC)c2)C3)cc1OC | 1.01 and 1.18 |
